Test results as given in paper PMC5651048, “Differential Resistance Mechanisms to Glyphosate Result in Fitness Cost for Lolium perenne and L. multiflorum” (Frontiers in Plant Science, 2017).

Test system: T1, EPSPS (5-enolpyruvlshikimate-3-phosphate synthase), Golf biotypes
T1 construct: native enzyme in leaf extract, not purified to homogeneity
Assay: EPSPS activity in leaf extract, phosphate release (EnzChek Phosphate Assay)
Type: biochemical, Lolium perenne
Conditions: S-Golf biotype; 0-1000 μM glyphosate; log-logistic fit; unit from Methods (table footnote with unit not in the material); read-out: EPSPS activity^c / I50
Excerpt: EPSPS activity in leaf extract, phosphate release (EnzChek Phosphate Assay) on EPSPS (5-enolpyruvlshikimate-3-phosphate synthase), Golf biotypes

Compound `O=C(O)CNCP(=O)(O)O` [glyphosate, N-phosphonomethyl glycine] has an IC50 of 3.2 ± 0.3 µM.
